From US12281057B2 (VERTEX PHARMACEUTICALS INCORPORATED, priority 2017, dated 2025)
pIC50: −log10 of the molar value.

Each molecule was assayed against truncated form of human NaV 1.8 with full channel activity (Homo sapiens, UniProt Q9Y5Y9) (assay: E-VIPR Assay Method B for detecting and measuring Nav inhibition (HEK cells, membrane potential FRET dyes, electrical stimulation)). Details: HEK cells expressing human NaV 1.8, Table 20B, read-out: Nav 1.8 MedChem Optical Assay EVIPR Assay Method B HS IC50.
truncated form of human NaV 1.8 with full channel activity, sequence (Q9Y5Y9 126-1722 limits assumed): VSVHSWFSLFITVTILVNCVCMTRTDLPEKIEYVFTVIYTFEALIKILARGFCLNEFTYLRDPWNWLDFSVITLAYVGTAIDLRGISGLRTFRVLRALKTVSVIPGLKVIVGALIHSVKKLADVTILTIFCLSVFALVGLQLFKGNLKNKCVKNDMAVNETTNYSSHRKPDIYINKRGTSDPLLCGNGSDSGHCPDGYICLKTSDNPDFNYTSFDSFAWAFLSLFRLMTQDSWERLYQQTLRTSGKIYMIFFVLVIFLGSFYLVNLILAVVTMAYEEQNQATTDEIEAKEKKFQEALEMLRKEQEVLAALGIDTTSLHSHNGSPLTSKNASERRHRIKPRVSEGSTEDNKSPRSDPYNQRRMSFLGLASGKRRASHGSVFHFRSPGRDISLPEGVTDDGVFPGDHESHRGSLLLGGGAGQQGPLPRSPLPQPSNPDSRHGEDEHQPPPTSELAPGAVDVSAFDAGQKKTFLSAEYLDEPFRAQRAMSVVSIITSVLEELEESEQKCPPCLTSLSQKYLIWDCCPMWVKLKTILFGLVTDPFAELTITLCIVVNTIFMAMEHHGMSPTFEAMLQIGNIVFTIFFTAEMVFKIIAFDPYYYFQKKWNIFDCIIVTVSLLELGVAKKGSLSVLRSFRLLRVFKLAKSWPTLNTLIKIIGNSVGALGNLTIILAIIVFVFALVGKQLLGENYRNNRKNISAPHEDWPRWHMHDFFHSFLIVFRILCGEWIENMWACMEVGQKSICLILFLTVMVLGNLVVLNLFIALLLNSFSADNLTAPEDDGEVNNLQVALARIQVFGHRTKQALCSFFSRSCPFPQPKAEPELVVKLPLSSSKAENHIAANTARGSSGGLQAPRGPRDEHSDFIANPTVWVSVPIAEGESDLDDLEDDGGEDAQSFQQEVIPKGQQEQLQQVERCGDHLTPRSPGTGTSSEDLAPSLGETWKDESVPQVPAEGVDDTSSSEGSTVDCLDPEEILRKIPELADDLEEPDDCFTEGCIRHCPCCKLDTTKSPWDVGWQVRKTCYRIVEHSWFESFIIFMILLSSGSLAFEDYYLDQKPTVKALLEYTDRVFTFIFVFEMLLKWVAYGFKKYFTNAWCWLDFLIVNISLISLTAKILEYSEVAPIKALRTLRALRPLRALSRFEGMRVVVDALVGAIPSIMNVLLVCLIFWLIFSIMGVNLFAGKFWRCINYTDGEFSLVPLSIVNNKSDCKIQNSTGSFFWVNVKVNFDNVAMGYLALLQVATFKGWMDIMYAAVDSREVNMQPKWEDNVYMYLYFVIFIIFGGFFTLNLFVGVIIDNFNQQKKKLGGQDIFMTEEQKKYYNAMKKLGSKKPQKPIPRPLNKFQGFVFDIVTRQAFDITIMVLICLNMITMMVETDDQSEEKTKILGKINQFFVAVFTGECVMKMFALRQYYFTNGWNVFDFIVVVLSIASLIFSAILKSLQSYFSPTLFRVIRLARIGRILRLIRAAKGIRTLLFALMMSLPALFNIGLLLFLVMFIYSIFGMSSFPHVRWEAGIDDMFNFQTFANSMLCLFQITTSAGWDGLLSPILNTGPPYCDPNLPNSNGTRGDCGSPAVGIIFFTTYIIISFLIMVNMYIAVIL
Format: cell-based
Excerpt: [formula] where X is the ratio response of the test compound. […] E-VIPR Assay Method B for Detecting and Measuring Nav Inhibition Properties Sodium ion channels are voltage-dependent proteins that can be activated by inducing membrane voltage changes by applying electric fields. The electrical stimulation instrument and methods of use, referred to as E-VIPR, are described in International Publication No. WO 2002/008748 A3 and C.-J. Huang et al. Characterization of voltage-gated sodium channel blockers by electrical stimulation and fluorescence detection of membrane potential, 24 Nature Biotech. 439-46 (2006), both of which are incorporated by reference in their entirety. The instrument comprises a microtiter plate handler, an optical system for exciting the coumarin dye while simultaneously recording the coumarin and oxonol emissions, a waveform generator, a current- or voltage-controlled amplifier, and parallel electrode pairs that are inserted into assay plate wells. Under integrated computer control, this instrument passes user-programmed electrical stimulus protocols to cells within the wells of the microtiter plate. […] Sigma #F4135), 1% NEAA (Non-Essential Amino Acids, Life Tech #11140), 1% HEPES (Life Tech #15630), 1% Pen-Strep (Penicillin-Streptomycin; […] Cells were expanded in vented cap flasks, with 95% humidity and 5% CO2. Reagents and Stock Solutions: • 100 mg/mL Pluronic F-127 (Sigma #P2443), in dry DMSO • Compound Plates: […] 5% KIR 2.1 Bacmam virus (produced in-house), prepared as described in Section 3.3 of J. A. Fornwald et al., Gene Expression in Mammalian Cells Using BacMam, a Modified Baculovirus System, 1350 Methods in Molecular Biology 95-116 (2016), the entire contents of which are incorporated by reference. • 5 mM DiSBAC6(3) (a voltage sensitive oxonol acceptor) (Aurora #00-100-010) in dry DMSO • 5 mM CC2-DMPE (a membrane-bound coumarin phospholipid FRET donor) (Aurora #00-100-008) in dry DMSO • 89 mM VABSC-1 in H2O. […] The solution was made by adding 10% Pluronic F127 stock equal to combined volumes of CC2-DMPE and DiSBAC6(3). The order of preparation was first mix Pluronic and CC2-DMPE, then add DiSBAC6(3), then while vortexing add Bath1/β-Cyclodextrin. […] Assay Protocol: […] Final DMSO concentration for all wells in the assay was 0.625% (0.75% DMSO was supplemented to the Compound Loading Buffer for a final DMSO concentration of 0.625%). 2) Hexyl Dye Solution was prepared. 3) Cell plates were prepared. On the day of the assay, the media was aspirated, and the cells were washed three times with 80 μL of Bath-1 buffer, maintaining 25 μL residual volume in each well. 4) 25 μL per well of Hexyl Dye Solution was dispensed into the cell plates. The cells were incubated for 20 minutes at room temp or ambient conditions in darkness. 5) 80 μL per well of Compound Loading Buffer was dispensed into compound plates. […] The mixture was incubated for 30 minutes at room temp/ambient conditions. […] A pre-stimulus recording was performed for 0.5 seconds to obtain the un-stimulated intensities baseline. The stimulatory waveform was followed by 0.5 seconds of post-stimulation recording to examine the relaxation to the resting state. Data Analysis: Data were analyzed and reported as normalized ratios of emission intensities measured in the 460 nm and 580 nm channels. The response as a function of time was reported as the ratios obtained using the following formula: [formula] The data were further reduced by calculating the initial (Ri) and final (Rf) ratios. These were the average ratio values during part or all of the pre-stimulation period and during sample points during the stimulation period. The fluorescence ratio (Rf/Ri) was then calculated and reported as a function of time. Control responses were obtained by performing assays in the presence of the positive control, and in the absence of pharmacological agents (DMSO vehicle negative control). Responses to the negative (N) and positive (P) controls were calculated as above. […]

First: COc1cc(F)ccc1Oc1cc(C(F)(F)C(F)(F)F)ccc1C(=O)Nc1cccc(C(N)=O)c1 [Compound 248, N-(3-carbamoylphenyl)-2-(4-fluoro-2-methoxyphenoxy)-4-(1,1,2,2,2-pentafluoroethyl)benzamide]
Second: COc1ccc(Oc2cc(C(F)(F)C(F)(F)F)ccc2C(=O)Nc2cccc(C(N)=O)c2)c(OC)c1 [Compound 252, N-(3-carbamoylphenyl)-2-(2,4-dimethoxyphenoxy)-4-(1,1,2,2,2-pentafluoroethyl)benzamide]
The pIC50 of the first is 0.52 log units higher: 7.96 for the first, 7.44 for the second.

Going from `NC(=O)c1cccc(NC(=O)c2ccc(C(F)(F)C(F)(F)F)cc2Oc2ccc(F)cc2)c1` [Compound 249, N-(3-carbamoylphenyl)-2-(4-fluorophenoxy)-4-(1,1,2,2,2-pentafluoroethyl)benzamide] to `NC(=O)c1cccc(NC(=O)c2cc(C(F)(F)F)ccc2Oc2ccc(F)cc2)c1` [Compound 276, N-(3-carbamoylphenyl)-2-(4-fluorophenoxy)-5-(trifluoromethyl)benzamide], the pIC50 falls from 7.22 to 7.01 (0.21 log units). The first is the more potent here.

`COc1ccc(Oc2cc(C(F)(F)C(F)(F)F)ccc2C(=O)Nc2cccc(C(N)=O)c2)cc1F` [Compound 250, N-(3-carbamoylphenyl)-2-(3-fluoro-4-methoxyphenoxy)-4-(1,1,2,2,2-pentafluoroethyl)benzamide] and `COc1ccc(Oc2cc(C(F)(F)C(F)(F)F)ccc2C(=O)Nc2cccc(C(N)=O)c2)c(Cl)c1` [Compound 251, N-(3-carbamoylphenyl)-2-(2-chloro-4-methoxyphenoxy)-4-(1,1,2,2,2-pentafluoroethyl)benzamide] are within 0.2 log units of each other in pIC50: 7.19 for the first, 7.04 for the second.

Compared with `COc1ccc(NC(=O)c2c(Oc3ccc(F)cc3Cl)cccc2C(F)(F)F)cc1C(N)=O` [Compound 253, N-(3-carbamoyl-4-methoxyphenyl)-2-(2-chloro-4-fluorophenoxy)-6-(trifluoromethyl)benzamide], `NC(=O)c1cc(NC(=O)c2c(Oc3ccc(F)cc3Cl)cccc2C(F)(F)F)ccc1Cl` [Compound 254, N-(3-carbamoyl-4-chlorophenyl)-2-(2-chloro-4-fluorophenoxy)-6-(trifluoromethyl)benzamide] is 0.53 log units higher in pIC50: 6.06 for the first, 6.59 for the second. The second is the more potent here.

Going from `Cc1ccc(C(N)=O)cc1NC(=O)c1c(Oc2ccc(F)cc2Cl)cccc1C(F)(F)F` [Compound 255, N-(5-carbamoyl-2-methylphenyl)-2-(2-chloro-4-fluorophenoxy)-6-(trifluoromethyl)benzamide] to `NC(=O)c1cccc(NC(=O)c2c(Oc3ccc(F)cc3Cl)cccc2C(F)(F)F)c1` [Compound 260, N-(3-carbamoylphenyl)-2-(2-chloro-4-fluorophenoxy)-6-(trifluoromethyl)benzamide], the pIC50 rises from 5.14 to 6.78 (1.64 log units). The second is the more potent here.

Compared with `NC(=O)c1ccc(NC(=O)c2c(Oc3ccc(F)cc3Cl)cccc2C(F)(F)F)cn1` [Compound 256, 5-[[2-(2-chloro-4-fluoro-phenoxy)-6-(trifluoromethyl)benzoyl]amino]pyridine-2-carboxamide], `Cc1cc(F)ccc1Oc1cccc(C(F)(F)F)c1C(=O)Nc1cccc(C(N)=O)c1` [Compound 258, N-(3-carbamoylphenyl)-2-(4-fluoro-2-methylphenoxy)-6-(trifluoromethyl)benzamide] is 0.81 log units higher in pIC50: 6.26 for the first, 7.07 for the second.

Going from `NC(=O)c1cccc(NC(=O)c2c(Oc3ccc(F)cc3)cccc2C(F)(F)F)c1` [Compound 257, N-(3-carbamoylphenyl)-2-(4-fluorophenoxy)-6-(trifluoromethyl)benzamide] to `COc1cc(F)ccc1Oc1cccc(C(F)(F)F)c1C(=O)Nc1cccc(C(N)=O)c1` [Compound 259, N-(3-carbamoylphenyl)-2-(4-fluoro-2-methoxyphenoxy)-6-(trifluoromethyl)benzamide], the pIC50 rises from 6.38 to 7.19 (0.81 log units). The second is the more potent here.

First: CC(C)(C)c1ccc(C(=O)Nc2cncc(C(N)=O)c2)c(Oc2ccc(C(F)(F)F)nc2)c1 [Compound 261, 5-(4-(tert-butyl)-2-((6-(trifluoromethyl)pyridin-3-yl)oxy)benzamido)nicotinamide]
Second: CC(C)(C)c1ccc(C(=O)Nc2cc(C(N)=O)ccn2)c(Oc2ccc(C(F)(F)F)nc2)c1 [Compound 262]
The pIC50 of the first is higher: 5.92 for the first, less than 4.60 for the second.

Compared with `CC(C)(C)c1ccc(C(=O)Nc2ccnc(C(N)=O)c2)c(Oc2ccc(C(F)(F)F)nc2)c1` [Compound 266, 4-(4-(tert-butyl)-2-((6-(trifluoromethyl)pyridin-3-yl)oxy)benzamido)picolinamide], `COc1ccc(Oc2ccc(C(F)(F)F)cc2C(=O)Nc2cccc(C(N)=O)c2)c(C)c1` [Compound 280, N-(3-carbamoylphenyl)-2-(4-methoxy-2-methylphenoxy)-5-(trifluoromethyl)benzamide] is 2.61 log units higher in pIC50: 4.77 for the first, 7.38 for the second.

`Cc1cc(F)ccc1Oc1cc(Cl)c(Cl)cc1C(=O)Nc1cccc(C(N)=O)c1` [Compound 267, N-(3-carbamoylphenyl)-4,5-dichloro-2-(4-fluoro-2-methyl-phenoxy)benzamide] and `COc1cc(F)ccc1Oc1cc(Cl)c(Cl)cc1C(=O)Nc1cccc(C(N)=O)c1` [Compound 270, N-(3-carbamoylphenyl)-4,5-dichloro-2-(4-fluoro-2-methoxy-phenoxy)benzamide] are within 0.2 log units of each other in pIC50: 8.15 for the first, 8.05 for the second.

Going from `NC(=O)c1cccc(NC(=O)c2cc(Cl)c(Cl)cc2Oc2ccc(F)cc2)c1` [Compound 268, N-(3-carbamoylphenyl)-4,5-dichloro-2-(4-fluorophenoxy)benzamide] to `NC(=O)c1cccc(NC(=O)c2cc(Cl)c(Cl)cc2Oc2ccc(OC(F)(F)F)cc2)c1` [Compound 272, N-(3-carbamoylphenyl)-4,5-dichloro-2-[4-(trifluoromethoxy)phenoxy]benzamide], the pIC50 rises from 7.85 to 8.10 (0.25 log units). The second is the more potent here.

Going from `COc1ccc(Oc2cc(Cl)c(Cl)cc2C(=O)Nc2cccc(C(N)=O)c2)c(OC)c1` [Compound 269, N-(3-carbamoylphenyl)-4,5-dichloro-2-(2,4-dimethoxyphenoxy)benzamide] to `COc1ccc(Oc2cc(Cl)c(Cl)cc2C(=O)Nc2cccc(C(N)=O)c2)c(F)c1` [Compound 273, N-(3-carbamoylphenyl)-4,5-dichloro-2-(2-fluoro-4-methoxy-phenoxy)benzamide], the pIC50 falls from 8.05 to 7.52 (0.53 log units).

Going from `COc1ccc(Oc2cc(Cl)c(Cl)cc2C(=O)Nc2cccc(C(N)=O)c2)cc1F` [Compound 271, N-(3-carbamoylphenyl)-4,5-dichloro-2-(3-fluoro-4-methoxy-phenoxy)benzamide] to `COc1cc(F)ccc1Oc1cc(Cl)c(Cl)cc1C(=O)Nc1ccc(C(N)=O)cc1` [Compound 274, N-(4-carbamoylphenyl)-4,5-dichloro-2-(4-fluoro-2-methoxy-phenoxy)benzamide], the pIC50 rises from 7.70 to 8.70 (1.00 log units). The second is the more potent here.

Going from `Cc1cccc(Oc2ccc(F)cc2Cl)c1C(=O)Nc1cccc(C(N)=O)c1` [Compound 275, N-(3-carbamoylphenyl)-2-(2-chloro-4-fluoro-phenoxy)-6-methyl-benzamide] to `COc1ccc(Oc2ccc(C(F)(F)F)cc2C(=O)Nc2cccc(C(N)=O)c2)c(Cl)c1` [Compound 279, N-(3-carbamoylphenyl)-2-(2-chloro-4-methoxyphenoxy)-5-(trifluoromethyl)benzamide], the pIC50 rises from 6.78 to 7.25 (0.47 log units).

Going from `NC(=O)c1cccc(NC(=O)c2cc(C(F)(F)F)ccc2Oc2ccccc2)c1` [Compound 277, N-(3-carbamoylphenyl)-2-phenoxy-5-(trifluoromethyl)benzamide] to `COc1c(F)cccc1Oc1ccc(C(F)(F)F)cc1C(=O)Nc1cccc(C(N)=O)c1` [Compound 278, N-(3-carbamoylphenyl)-2-(3-fluoro-2-methoxyphenoxy)-5-(trifluoromethyl)benzamide], the pIC50 rises from 6.60 to 7.68 (1.08 log units). The second is the more potent here.
